PubChem BioAssay (NCI)
Several values for one entry are separate records, joined by “and”; a condition that tells them apart may be missing. Equal values may be shown once.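 Results reflect a 48-hour exposure of cells in 96-well plates to compound at five concentrations. GI50 is the concentration that inhibits growth by half. TGI is the concentration that stops growth completely.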

Key:
Assay in all cases: inhibition of tumour cell growth, NCI panel, 48 h
786-0 renal = tested on: 786-0 renal
A498 renal = tested on: A498 renal
NCI-H226 lung = tested on: NCI-H226 lung
OVCAR-3 ovarian = tested on: OVCAR-3 ovarian
OVCAR-8 ovarian = tested on: OVCAR-8 ovarian
RXF 393 renal = tested on: RXF 393 renal
SK-MEL-2 melanoma = tested on: SK-MEL-2 melanoma
SK-MEL-5 melanoma = tested on: SK-MEL-5 melanoma
SNB-19 CNS = tested on: SNB-19 CNS
SNB-75 CNS = tested on: SNB-75 CNS

Structure (SMILES) | GI50 (786-0 renal) | TGI (786-0 renal) | GI50 (A498 renal) | TGI (A498 renal) | GI50 (NCI-H226 lung) | TGI (NCI-H226 lung) | GI50 (OVCAR-3 ovarian) | TGI (OVCAR-3 ovarian) | GI50 (OVCAR-8 ovarian) | TGI (OVCAR-8 ovarian) | GI50 (RXF 393 renal) | TGI (RXF 393 renal) | GI50 (SK-MEL-2 melanoma) | TGI (SK-MEL-2 melanoma) | GI50 (SK-MEL-5 melanoma) | TGI (SK-MEL-5 melanoma) | GI50 (SNB-19 CNS) | TGI (SNB-19 CNS) | GI50 (SNB-75 CNS) | TGI (SNB-75 CNS)
Cn1ccnc1C(=O)/C=C/c1ccc(CC(=O)Nc2ccccc2)cc1 | 2.67 µM | 7.86 µM | 6.08 µM | 14.5 µM | 8.59 µM | > 25 µM | 1.87 µM | 5.37 µM | 6.44 µM | > 25 µM | 3.86 µM | 7.99 µM | 5.06 µM | 13.3 µM | 4.18 µM | 7.9 µM | 1.9 µM | 11.9 µM | > 25 µM | > 25 µM
CN(C)c1ccc2cc(-c3ccccc3F)c(N)nc2c1 | 2.49 µM | 14.3 µM | 2.32 µM | 15.2 µM | 3.61 µM | 20.3 µM | 0.922 µM | 7.62 µM | 3.71 µM | 15.8 µM | 2.53 µM | 10.8 µM | 2.05 µM | 15 µM | 1.54 µM | 6.31 µM | 3.1 µM | 19.2 µM | 1.86 µM | 9.69 µM
CC1=C(O)C(=O)C2C(=O)C1C(C)C2c1ccc(Cl)cc1 (stereo unspecified) | – | > 100 µM | – | > 100 µM | – | > 100 µM | – | > 100 µM | – | > 100 µM | – | > 100 µM | – | > 100 µM | – | > 100 µM | – | > 100 µM | – | > 100 µM
CCN(Cc1ccccc1OC)c1ccc(CO)c(Cl)c1 | 13 µM | 26.2 µM | 0.0454 µM | 0.13 µM | 0.0487 µM | 0.179 µM | 0.767 µM | 4.48 µM | 12.4 µM | 31.8 µM | 7.61 µM | 24.7 µM | 2.11 µM | 10.9 µM | 6.61 µM | 19.9 µM | 13.7 µM | 31.8 µM | 9.47 µM | 26.5 µM
Fc1cccc(COc2ccc(Nc3ncnc4cc(-c5ccc[nH]5)sc34)cc2Cl)c1 | 1.22 µM | 5.32 µM | 2.27 µM | > 17.7 µM | 1.7 µM | > 16.8 µM | 0.151 µM | 2.99 µM | 3.38 µM | > 25 µM | 2.17 µM | 6.62 µM | 6.77 µM | > 25 µM | 6.01 µM | > 25 µM | 2.22 µM | > 25 µM | 1.19 µM | 6.35 µM
CC12CCC(=O)C=C1CCC1C2C(O)CC2(C)C(c3csc(N)n3)CCC12 (stereo unspecified) | – | > 100 µM | – | > 100 µM | – | > 100 µM | – | > 100 µM | – | > 100 µM | – | > 100 µM | – | > 100 µM | – | > 100 µM | – | > 100 µM | – | > 100 µM
NNC(=O)CCC(=O)NC1C2CC3CC(C2)CC1C3 (stereo unspecified) | – | > 100 µM | – | > 100 µM | – | > 100 µM | – | – | – | > 100 µM | – | > 100 µM | – | > 100 µM | – | > 100 µM | – | > 100 µM | – | > 100 µM
O=C1/C(=C/c2ccc(O)cc2)COc2ccc(-c3ccccc3)cc21 | 12 µM | 32.3 µM | 11.5 µM | 23.8 µM | 16.1 µM | 39.2 µM | 2.49 µM | 8.14 µM | 9.27 µM | 23.1 µM | 3.35 µM | 8.25 µM | 16.8 µM | 39 µM | 8.67 µM | 22.9 µM | 15.7 µM | 37.3 µM | 5.17 µM | 15.5 µM
CC(=O)OC1c2ccccc2CCCCCCC12OCCO2 (stereo unspecified) | – | > 100 µM | – | > 100 µM | – | > 100 µM | – | > 100 µM | – | > 100 µM | – | > 100 µM | – | > 100 µM | – | > 100 µM | – | > 100 µM | – | > 100 µM
CC1C(=O)C(C)C(c2ccccc2)N(N=O)C1c1ccccc1 (stereo unspecified) | – | 359 µM | – | 696 µM | 260 µM | 572 µM | – | 685 µM | 353 µM | > 946 µM | 49.6 µM | > 68.4 µM and 171 µM | – | 623 µM | – | > 605 µM | 312 µM | > 830 µM | 27.2 µM | 64.7 µM and 80.6 µM
CCCCn1cnc2c(SC)ncnc21 | – | > 100 µM | – | > 100 µM | – | – | – | > 100 µM | – | > 100 µM | – | > 100 µM | – | > 100 µM | – | > 100 µM | – | > 100 µM | – | > 100 µM
COc1ccc(NC(=O)c2cc(OC)c(OC)c(OC)c2)cc1 | – | > 100 µM | – | > 100 µM | – | > 100 µM | – | > 100 µM | – | > 100 µM | – | 94.3 µM | – | 65.2 µM | – | > 80.6 µM | – | > 100 µM | – | > 100 µM
CCC12CCCC(=O)N1C(CO)C(c1ccccc1)O2 (stereo unspecified) | – | > 100 µM | – | > 100 µM | – | – | – | > 100 µM | – | > 100 µM | – | > 100 µM | – | > 100 µM | – | > 100 µM | – | > 100 µM | – | > 100 µM
COc1ccc2c(c1)OC(N(C(C)=O)C(C)=O)=C(C#N)C2c1ccc(F)cc1 (stereo unspecified) | 3.52 µM | > 100 µM | 2.43 µM | > 100 µM | 25.5 µM | > 100 µM | 0.676 µM | 7.5 µM | 3.92 µM | > 100 µM | 1.77 µM | 9.63 µM | 1.08 µM | > 100 µM | 1.98 µM | 18.3 µM | 2.91 µM | > 100 µM | 1.28 µM | > 100 µM
COc1cc(CNc2ccc(C(C)C)cc2)cc(OC)c1OC | – | 30.2 µM | – | 67.7 µM | – | – | 16.3 µM | 33.4 µM | – | 73.4 µM | – | 14.1 µM | – | 32.9 µM | – | 27.9 µM | – | 99.1 µM | – | 70.5 µM
CCOC(=O)NN1C(=O)C(=P(c2ccccc2)(c2ccccc2)c2ccccc2)C(C(=O)OCC)=C1C | – | > 100 µM | – | > 100 µM | – | > 100 µM | – | > 100 µM | – | > 100 µM | – | > 100 µM | – | > 100 µM | – | > 100 µM | – | > 100 µM | – | > 100 µM
O=C1C(Cl)=C(Nc2cccc(O)c2)C(=O)N1c1cc(Cl)c(Cl)cc1Cl | 16.7 µM | 32.7 µM | – | 7.84 µM | 14.7 µM | 40.9 µM | 15.9 µM | 36.1 µM | 24 µM | 75.5 µM | 14.9 µM | 30.6 µM | 15 µM | 29.6 µM | 11 µM | 23.3 µM | 20.4 µM | 45.5 µM | 16.4 µM | 31.3 µM
